{"source": "patent US9718772B2", "about": "“Crystalline (3Z,5S)-5-(hydroxymethyl)-1-[(2′-methyl-1,1′-biphenyl-4-yl)carbonyl]pyrrolidin-3-one O-methyloxime, and methods of using the same” (ObsEva SA, priority 2014, dated 2017)", "format_in_all_cases": "physicochemical", "key": {"[1]": {"assay": "MB (moisture balance) of the crystalline compound from ethyl acetate", "details": "crystallized from ethyl acetate", "protocol": "Ethyl acetate was added to amorphous (3Z,5S)-5-(hydroxymethyl)-1-[(2′-methyl-1,1′-biphenyl-4-yl)carbonyl]pyrrolidin-3-one O-methyloxime. The suspension was sonicated in ambient bath tor 60 minutes to provide a clear solution that was further sonicated and cooled over 10 minutes. The clear solution was placed in the freezer for 4 days. The solvent was decanted and the solid was washed with hexane, then dried under nitrogen flow for 30 minutes. The resulting solid was analyzed by XRPD and confirmed to be crystalline (3Z,5S)-5-(hydroxymethyl)-1-[(2′-methyl-1,1′-biphenyl-4-yl)carbonyl]pyrrolidin-3-one O-methyloxime. FIGS. 7 and 9 are the DSC and TGA curves, respectively, obtained front testing this sample."}, "[2]": {"assay": "Comparative stability study: slurries stirred in pH 7 phosphate buffer (USP) at 25° C., observation and XRPD", "details": "for XRPD pattern of solids after stirring in pH 7 buffer: stirred 24 hours at 25° C., solids air dried overnight (FIG. 4, FIG. 5)", "protocol": "Slurries of crystalline (3Z,5S)-5-(hydroxymethyl)-1-[(2′-methyl-1,1′-biphenyl-4-yl)carbonyl]pyrrolidin-3-one O-methyloxime and amorphous (3Z,5S)-5-(hydroxymethyl)-1-[(2′-methyl-1,1′-biphenyl-4-yl)carbonyl]pyrrolidin-3-one O-methyloxime were prepared by weighing directly into vials 100 mg of crystalline or amorphous material, About 3 mL of pH 7 phosphate buffer USP was added to each sample. Samples of each of the slurries were stirred in pH 7 phosphate buffer (USP) at 25° C. for 24 hours. At the end of 24 hours, the solvent was removed from the sample by pipetting out and solids allowed to air dry in the fumehood overnight. Solids were then submitted for XRPD analysis. Both the samples first appeared as white powders. Pictures of the samples were taken at time points corresponding to 0.5 min, 15 min, 1 hour, 3 hours and 24 hours after adding the pH 7 phosphate buffer."}, "[3]": {"assay": "Comparative stability study: slurries stirred in pH 7 phosphate buffer (USP) at 25° C., observation and XRPD", "details": "in pH 7 phosphate buffer at 25° C., T = 5 min"}, "[4]": {"assay": "Solid stress experiments (humidity, temperature, pressure, grinding, milling; XRPD)", "protocol": "Solid stress experiments were conducted on crystalline (3Z,5S)-5-(hydroxymethyl)-1-[(2′-methyl-1,1′-biphenyl-4-yl)carbonyl]pyrrolidin-3-one O-methyloxime and amorphous (3Z,5S)-5-(hydroxymethyl)-1-[(2′-methyl-1,1′-biphenyl-4-yl)carbonyl]pyrrolidin-3-one O-methyloxime and the results shown below in Tables 8 and 9. […] Stressing at 97% RH for the same time caused the material to deliquesce."}, "[5]": {"assay": "Vacuum-drying of the crystalline compound, XRPD comparison (FIG. 2)", "details": "vacuum-drying at about 45° C. for about 65 hours; crystallized from diethyl ether", "protocol": "“After crystallization” means after preparation of the solid and drying at ambient temperature to about 45° C.\n23 mg of the solid was then further vacuum-dried at 45° C. for an additional 65 hours. The resulting solid was analyzed by XRPD and confirmed to be the crystalline compound."}, "[6]": {"details": "75% RH, amorphous starting material"}, "[7]": {"details": "10,000 psi, 1 minute, crystallized from Diethyl Ether"}, "[8]": {"details": "Ether stress, solid in solvent at ambient, 3 days (slurry)"}}, "note": "“Also recorded” adds a separate entry of the source.", "data": [{"compound": "CO/N=C1/C[C@@H](CO)N(C(=O)c2ccc(-c3ccccc3C)cc2)C1", "note": "[(3Z,5S)-5-(hydroxymethyl)-1-[(2′-methyl-1,1′-biphenyl-4-yl)carbonyl]pyrrolidin-3-one O-methyloxime]", "values": [{"measurement": "weight gain from 5% RH to 95% RH", "setting": "[1]; MB (moisture balance)", "value": "3.25% weight gain from 5% RH to 95% RH"}, {"measurement": "weight loss from 95% RH to 5% RH", "setting": "[1]; MB (moisture balance)", "value": "1.44% weight loss from 95% RH to 5% RH"}, {"measurement": "weight loss upon equilibration at 5% RH", "setting": "[1]; MB (moisture balance)", "value": "0.20% weight loss upon equilibration at 5% RH"}, {"measurement": "Post MB XRPD", "setting": "[1]; after moisture balance", "value": "Crystalline form and Amorphous"}, {"measurement": "Observation of sample", "setting": "[2]; Before adding buffer, listed as Amorphous form", "value": "White power"}, {"measurement": "Observation of sample", "setting": "[2]; Before adding buffer, listed as Crystalline compound", "value": "White powder"}, {"measurement": "Observation of sample", "setting": "[2]; in pH 7 phosphate buffer at 25° C., T = 0, listed as Crystalline compound", "value": "White powder dispersed"}, {"measurement": "Observation of sample", "setting": "[2]; in pH 7 phosphate buffer at 25° C., T = 15 min, listed as Amorphous (3Z,5S)-5-(hydroxymethyl)-1-[(2-methyl-1,1′-biphenyl-4-yl)carbonyl]pyr", "value": "opaque sticky material"}, {"measurement": "Observation of sample", "setting": "[2]; in pH 7 phosphate buffer at 25° C., T = 15 min, listed as Amorphous form", "value": "Opaque sticky round lump"}, {"measurement": "Observation of sample", "setting": "[2]; in pH 7 phosphate buffer at 25° C., T = 15 min, listed as Crystalline compound", "value": "White powder dispersed"}, {"measurement": "Observation of sample", "setting": "[2]; in pH 7 phosphate buffer at 25° C., T = 1 hour, listed as Amorphous form", "value": "Opaque sticky round lump"}, {"measurement": "Observation of sample", "setting": "[2]; in pH 7 phosphate buffer at 25° C., T = 1 hour, listed as Crystalline compound", "value": "White solid round lump,"}, {"measurement": "Observation of sample", "setting": "[2]; in pH 7 phosphate buffer at 25° C., T = 1 hour, listed as crystalline (3Z,5S)-5-(hydroxymethyl)-1-[(2′-methyl-1,1-biphenyl-4-yl)carbonyl]p", "value": "white sticky material"}, {"measurement": "Observation of sample", "setting": "[2]; in pH 7 phosphate buffer at 25° C., T = 3 hours, listed as Amorphous form", "value": "Opaque sticky material"}, {"measurement": "Observation of sample", "setting": "[2]; in pH 7 phosphate buffer at 25° C., T = 3 hours, listed as Crystalline compound", "value": "White sticky material"}, {"measurement": "Observation of sample", "setting": "[2]; in pH 7 phosphate buffer at 25° C., T = 24 hours, listed as Amorphous form", "value": "Opaque sticky material"}, {"measurement": "Observation of sample", "setting": "[2]; in pH 7 phosphate buffer at 25° C., T = 24 hours, listed as Crystalline compound", "value": "White sticky material"}, {"measurement": "XRPD pattern of solids after stirring in pH 7 buffer", "setting": "[2]", "value": "peaks consistent with those seen in the powder pattern of crystalline"}, {"measurement": "XRPD pattern of solids after stirring in pH 7 buffer", "setting": "[2]; listed as amorphous (3Z,5S)-5-(hydroxymethyl)-1-[(2-methyl-1,1′-biphenyl-4-yl)carbonyl]pyr", "value": "presence of amorphous phase"}, {"measurement": "Observation of sample", "setting": "[3]; listed as Amorphous form", "value": "Thick white sticky mass"}, {"measurement": "Observation of sample", "setting": "[3]; listed as Crystalline compound", "value": "White powder dispersed"}, {"measurement": "Habit/Description", "setting": "[4]; 40° C., 10 days", "value": "Rounded chunks"}, {"measurement": "XRPD Result", "setting": "[4]; 40° C., 10 days", "value": "Amorphous"}, {"measurement": "Habit/Description", "setting": "[4]; 40° C./75% RH, 1 day", "value": "Oil drops"}, {"measurement": "XRPD Result", "setting": "[4]; 1 minute grind (by hand), crystallized from Diethyl Ether", "value": "mixture of the crystalline compound and the amorphous compound; also recorded: Crystalline form"}, {"measurement": "Habit/Description", "setting": "[4]; 1 minute grind, crystallized from Diethyl Ether", "value": "White Solid"}, {"measurement": "Habit/Description", "setting": "[4]; 70° C., 1 day", "value": "Oil puddle"}, {"measurement": "Habit/Description", "setting": "[4]; 70° C., 6 days", "value": "Rounded chunks, clear oil drops"}, {"measurement": "XRPD Result", "setting": "[4]; 70° C., 6 days", "value": "Amorphous"}, {"measurement": "XRPD Result", "setting": "[4]; 75% RH, 3 days, crystallized from Ethyl Acetate", "value": "remained unchanged; also recorded: Crystalline form"}, {"measurement": "weight gain", "setting": "[4]; 75% RH, after 1 day", "value": 2.5, "unit": "% weight gain after 1 day"}, {"measurement": "weight gain", "setting": "[4]; 75% RH, after 5 days", "value": "3.7% weight gain after 5 days"}, {"measurement": "weight gain", "setting": "[4]; 75% RH, after 12 days", "value": "6.6% weight gain after 12 days"}, {"measurement": "weight gain", "setting": "[4]; 75% RH, after 20 days", "value": "2.9% weight gain after 20 days"}, {"measurement": "Habit/Description", "setting": "[4]; [6]", "value": "White jagged flakes, chunks, no"}, {"measurement": "XRPD Result", "setting": "[4]; [6]", "value": "Amorphous"}, {"measurement": "Habit/Description", "setting": "[4]; 97% RH, 3 days, amorphous starting material", "value": "Deliquesced"}, {"measurement": "Habit/Description", "setting": "[4]; 97% RH, 3 days, crystallized from Ethyl Acetate", "value": "Deliquesced"}, {"measurement": "Habit/Description", "setting": "[4]; [7]", "value": "White Solid"}, {"measurement": "XRPD Result", "setting": "[4]; [7]", "value": "remained in crystalline form"}, {"measurement": "Habit/Description", "setting": "[4]; [8]", "value": "White chunks, bits"}, {"measurement": "XRPD Result", "setting": "[4]; [8]", "value": "Amorphous"}, {"measurement": "Habit/Description", "setting": "[4]; Milling with 10μL toluene, after 10 minutes", "value": "Stick gum like solid after 10"}, {"measurement": "Habit/Description", "setting": "[4]; Milling with 10μL toluene, by 70 minutes", "value": "minutes, sticky film by 70 minutes"}, {"measurement": "Habit/Description", "setting": "[4]; Milling with 25 μL water, ~10 minutes", "value": "Sticky gum-like solid"}, {"measurement": "Habit/Description", "setting": "[4]; Solid wet with ethyl ether, after 1 day at ambient", "value": "Chunks, few areas of birefringence"}, {"measurement": "Habit/Description", "setting": "[4]; Solid wet with ethyl ether, after 5 days ambient", "value": "Chunks, few areas with extinguish"}, {"measurement": "solid form by XRPD after vacuum-drying", "setting": "[5]", "value": "does not change the solid form"}]}]}
